# Reference: the NIST ThermoML archive (doi:10.1021/acs.jced.9b00509)
# ± gives the expanded uncertainty stated by the source.
# Experiment: mean ionic activity coefficient (dimensionless); mn = molality of the nth substance listed, in mol/kg
# Conditions: 278.15 K, 100 kPa, Liquid, cell potential measurements
smiles,measurement,setting,value
[Cl-].[Na+] [sodium chloride] + O,mean ionic activity coefficient,m1 = 0.0101,0.895 ± 0.096
same,mean ionic activity coefficient,m1 = 0.05,0.833 ± 0.096
same,mean ionic activity coefficient,m1 = 0.0999,0.771 ± 0.096
same,mean ionic activity coefficient,m1 = 0.1999,0.741 ± 0.096
same,mean ionic activity coefficient,m1 = 0.5,0.642 ± 0.096
same,mean ionic activity coefficient,m1 = 0.9999,0.619 ± 0.096
same,mean ionic activity coefficient,m1 = 1.999,0.628 ± 0.096
same,mean ionic activity coefficient,m1 = 2.999,0.654 ± 0.096
